Measured values from ChEMBL document CHEMBL2390876, “Synthesis and evaluation of 4,5-dihydro-5-methylisoxazolin-5-carboxamide derivatives as VLA-4 antagonists” (Bioorg Med Chem Lett, 2013).

Assays:
[1] = in vitro; settings: human, liver microsomes
[2] = in vitro; settings: rat, liver microsomes
[3] = in vitro; settings: mouse, liver microsomes

With `CC(C1=NOC(C)(C(=O)N[C@@H](Cc2ccc(NC(=O)c3c(Cl)cccc3Cl)cc2)C(=O)O)C1)c1ccccc1` (stereo partly drawn) the remaining at 0.5 h [1] was 95%, the remaining at 0.5 h [2] was 84.5% and the remaining at 0.5 h [3] was 99%.
